# According to ChEMBL document CHEMBL1201862, “PubChem BioAssay data set” (2004):
# Where a name gives a salt, the structure may show the parent alone. Active and inactive are the calls of the source.
# Columns and labels:
# [1] = molecular target: 5-hydroxytryptamine receptor 2A (Mus musculus, UniProt P35363); format: functional, cell-based;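 note: CHO-K1 cells with tagged receptor and beta-arrestin; agonist potency measured as compound-induced activation of the receptor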
# Mu-type opioid receptor = Mu-type opioid receptor (Homo sapiens, UniProt P35372); format: functional, cell-based;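 note: U2OS cells with beta-arrestin recruitment to OPRM1 by beta-gal complementation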
# Mu-type opioid receptor, sequence (P35372 whole entry): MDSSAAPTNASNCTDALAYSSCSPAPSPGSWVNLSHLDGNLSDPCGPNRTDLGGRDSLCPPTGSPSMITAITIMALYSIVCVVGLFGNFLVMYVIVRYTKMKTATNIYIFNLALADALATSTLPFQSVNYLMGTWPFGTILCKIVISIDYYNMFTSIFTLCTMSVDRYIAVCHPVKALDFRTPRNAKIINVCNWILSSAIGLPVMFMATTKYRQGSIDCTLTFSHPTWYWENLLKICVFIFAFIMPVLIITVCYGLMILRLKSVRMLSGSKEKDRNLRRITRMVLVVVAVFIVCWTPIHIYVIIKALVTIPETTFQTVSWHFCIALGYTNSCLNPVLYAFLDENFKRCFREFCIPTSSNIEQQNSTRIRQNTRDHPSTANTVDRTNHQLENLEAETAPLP
# Vero = assay: Vero cell toxicity, dose response, cytotoxicity control, plate reader, cherry-pick samples (AID 687020); format: functional, cell-based; conditions: Chlorocebus sabaeus
# [2] = miR-122 activators in hepatoma reporter cells, dose response, cell-based, Huh7 psiCHECK-miR122, Renilla luciferase, cherry-picked (AID 651956); format: functional;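 note: huh7 hepatoma cells stably carrying a psiCHECK-2 miR-122 sensor plasmid; renilla luciferase signal reporting endogenous miR-122 activity after 48 h compound exposure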
# [3] = molecular target: T1, DNA repair and recombination protein RAD54-like (Homo sapiens, UniProt Q92698); assay: inhibitors of human RAD54 branch migration, confirmation, biochemical, fluorescence, cherry-picked samples, dose series (AID 651657); format: functional
# T1 sequence (Q92698 whole entry): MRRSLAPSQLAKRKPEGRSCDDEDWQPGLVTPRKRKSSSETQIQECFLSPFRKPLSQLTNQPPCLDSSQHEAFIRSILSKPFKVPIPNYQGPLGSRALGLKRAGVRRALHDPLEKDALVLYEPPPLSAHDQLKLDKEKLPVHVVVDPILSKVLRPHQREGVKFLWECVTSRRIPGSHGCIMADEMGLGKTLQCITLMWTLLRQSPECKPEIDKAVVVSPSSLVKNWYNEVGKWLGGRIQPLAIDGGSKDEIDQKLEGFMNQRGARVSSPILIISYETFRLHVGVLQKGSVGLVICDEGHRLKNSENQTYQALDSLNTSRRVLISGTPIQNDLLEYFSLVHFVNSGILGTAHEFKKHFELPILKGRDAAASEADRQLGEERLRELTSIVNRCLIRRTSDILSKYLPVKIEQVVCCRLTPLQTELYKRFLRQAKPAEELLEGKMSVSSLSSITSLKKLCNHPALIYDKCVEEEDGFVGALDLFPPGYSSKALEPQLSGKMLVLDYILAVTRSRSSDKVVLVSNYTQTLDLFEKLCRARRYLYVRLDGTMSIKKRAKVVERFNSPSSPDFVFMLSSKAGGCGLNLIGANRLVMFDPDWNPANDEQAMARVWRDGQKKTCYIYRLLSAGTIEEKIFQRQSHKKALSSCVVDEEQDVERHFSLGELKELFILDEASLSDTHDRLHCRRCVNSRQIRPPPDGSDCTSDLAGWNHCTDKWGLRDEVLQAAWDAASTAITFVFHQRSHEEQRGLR
# [4] = Shn3 3'UTR reporter inhibitors, dose response, cell-based, Clone20 osteoblasts, firefly luciferase, cherry-picked (AID 624132); format: functional;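 note: firefly luciferase luminescence from reporter carrying the Shn3 3'UTR in osteoblasts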
# [5] = cytotoxicity in HEK-293T cells, dose response, cytotoxicity control for TCR NF-kB inhibitor project, luminescence, T-cell screen hits (AID 489026); format: functional, cell-based;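 note: cells exposed to compound about 14 hours before the viability readout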
# [6] = HepG2 cell cytotoxicity, dose response, cytotoxicity control for Shn3 inhibitor project, CellTiter-Glo, cherry-picked (AID 624134); format: functional, cell-based
# [7] = Luminescence Cell-Based Dose Retest to Confirm Inhibitors of Cancer Stem Cells. [Related pubchem assays (depositor defined):AID2717, AID2721]; format: functional; conditions: Homo sapiens
# [8] = control 3'UTR Renilla luciferase suppression, dose response, counter-screen for Shn3 inhibitor project, cell-based, Clone20-Shn3RL, cherry-picked (AID 624133); format: functional
# [9] = molecular target: FAD-linked sulfhydryl oxidase ALR (Homo sapiens, UniProt P55789); assay: inhibitors of human ALR sulfhydryl oxidase, dose response, biochemical, H2O2 detection, luminescence, cherry-pick (AID 493248)
# FAD-linked sulfhydryl oxidase ALR, sequence (P55789 whole entry): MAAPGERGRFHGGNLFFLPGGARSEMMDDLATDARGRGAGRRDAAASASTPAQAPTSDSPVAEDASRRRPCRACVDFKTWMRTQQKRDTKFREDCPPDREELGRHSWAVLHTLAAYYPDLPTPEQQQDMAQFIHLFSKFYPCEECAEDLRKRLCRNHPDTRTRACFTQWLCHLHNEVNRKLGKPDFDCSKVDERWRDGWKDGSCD
# [10] = molecular target: T2, DNA repair protein RAD52 homolog (Homo sapiens, UniProt P43351); format: functional, biochemical
# T2 sequence (P43351 whole entry): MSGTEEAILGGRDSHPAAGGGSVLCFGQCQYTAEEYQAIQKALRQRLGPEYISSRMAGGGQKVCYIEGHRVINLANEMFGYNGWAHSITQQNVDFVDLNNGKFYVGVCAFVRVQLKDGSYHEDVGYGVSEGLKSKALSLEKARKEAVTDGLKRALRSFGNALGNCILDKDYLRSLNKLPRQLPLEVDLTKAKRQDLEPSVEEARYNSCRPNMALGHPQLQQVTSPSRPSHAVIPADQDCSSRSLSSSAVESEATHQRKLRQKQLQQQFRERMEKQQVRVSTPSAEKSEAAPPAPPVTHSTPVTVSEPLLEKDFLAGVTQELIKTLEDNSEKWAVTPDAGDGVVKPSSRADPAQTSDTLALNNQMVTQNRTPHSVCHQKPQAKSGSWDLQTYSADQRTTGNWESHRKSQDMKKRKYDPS
# [11] = DNA binding of candidate compounds, dose response, artefact control for RAD54 inhibitor project, biochemical, fluorescence polarization, cherry-pick (AID 651673); format: functional
# [12] = MDA-MB-231 cell growth inhibition, dose response, cytotoxicity control for RAD54 inhibitor project, CellTiter-Glo luminescence, cherry-pick (AID 651692); format: functional, cell-based
# 5-hydroxytryptamine receptor 2A, sequence (P35363 whole entry): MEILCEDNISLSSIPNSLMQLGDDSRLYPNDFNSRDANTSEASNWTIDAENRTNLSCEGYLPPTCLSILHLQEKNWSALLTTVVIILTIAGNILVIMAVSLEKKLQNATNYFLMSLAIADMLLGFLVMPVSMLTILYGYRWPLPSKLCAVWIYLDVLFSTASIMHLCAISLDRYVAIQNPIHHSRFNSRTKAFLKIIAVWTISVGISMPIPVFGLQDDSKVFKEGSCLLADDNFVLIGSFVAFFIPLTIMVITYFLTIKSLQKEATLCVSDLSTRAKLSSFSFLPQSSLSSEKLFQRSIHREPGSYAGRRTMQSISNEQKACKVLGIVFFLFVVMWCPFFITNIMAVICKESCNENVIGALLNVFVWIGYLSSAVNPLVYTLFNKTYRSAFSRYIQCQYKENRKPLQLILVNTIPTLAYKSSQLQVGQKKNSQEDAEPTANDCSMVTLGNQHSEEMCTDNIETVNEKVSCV
structure (smiles),measurement,setting,value
Cc1ccc(C(=O)N/C(=C/c2ccccc2)C(=O)NC(Cc2ccccc2)C(=O)O)cc1 (centres undefined),EC50,[1],76.1 µM (inactive)
same,EC50,Mu-type opioid receptor,92.5 µM (inactive)
Cc1cc(F)ccc1C(O)c1nc(-c2ccccc2C(F)(F)F)c[nH]1 (centres undefined),AC50,Vero,33.5 µM (active)
CNC(=O)C[C@H]1CC[C@@H]2[C@@H](COc3ccc(NC(=O)Nc4ccc(Cl)cc4)cc3C(=O)N2C)O1,AC50,[2],29 µM (active)
COc1cc(NS(C)(=O)=O)ccc1Nc1c2ccccc2nc2ccccc12 [AMSACRINE HYDROCHLORIDE],AC50,[3],11.6 µM (active)
same,AC50,[4],1.32 µM (active)
same,IC50,[5],> 80 µM (inactive)
same,AC50,[6],18.9 µM (active)
same,AC50,[7],0.91 µM (active)
same,AC50,[8],7.09 µM (active)
same,AC50,[9],16 µM (active)
same,AC50,[10],6.83 µM (active)
same,AC50,[11],39.4 µM (active)
same,AC50,[12],23.3 µM (active)
